In one assay the test system is guinea pig ileum. Nature of the assay: direct spasmolytic activity in vitro, isolated guinea pig ileum, barium chloride agonist. The class given is cell-based. The procedure:
α-Adrenergic receptor blocking activity is determined in vitro by performing cumulative dose-response experiments in the isolated rabbit aortic strip preparation using norepinephrine as the agonist. The contractile response of the rabbit strip preparation in the presence of logarithmically increasing concentrations of the compounds being tested are expressed as percent of the maximal attainable […]. Relative antagonistic potency is expressed as a pA2 value. […] Direct spasmolytic activity is determined in vitro by performing cumulative dose response experiments in the isolated guinea pig ileum preparation using barium chloride as the agonist. The contractile response of the guinea pig ileum preparation in the presence of logarithmically increasing concentrations of the compounds being tested are expressed as percent of the maximal attainable response. Relative antagonistic potency is expressed as a pA2 value, as defined above.

The next assay deals with T1, β-adrenergic receptor (Cavia porcellus, UniProt H0W3H1).
T1 construct: isolated guinea pig atria preparation; from tissue; host or cells: isolated guinea pig atria
Briefly: β-adrenergic receptor blocking activity in vitro, isolated guinea pig atria, isoproterenol agonist. The class given is cell-based. To be noted: for Kb: read-out: pA2 β (converted). The procedure: (§1) α-Adrenergic receptor blocking activity is determined in vitro by performing cumulative dose-response experiments in the isolated rabbit aortic strip preparation using norepinephrine as the agonist. The contractile response of the rabbit strip preparation in the presence of logarithmically increasing concentrations of the compounds being tested are expressed as percent of the maximal attainable […]. Relative antagonistic potency is expressed as a pA2 value.
β-Adrenergic receptor blocking activity is determined in vitro by performing cumulative dose-response experiments in the isolated guinea pig atria preparation using isoproterenol as the agonist. The response (increase in rate) of the guinea pig atria preparation in the presence of logarithmically increasing concentrations of the compounds being tested are expressed as percent of the maximal attainable response. Relative antagonistic potency is expressed as a pA2 value, as defined above.

Assay [1] concerns α-adrenergic receptor. Briefly: α-adrenergic receptor blocking activity in vitro, isolated rabbit aortic strip, norepinephrine agonist. The class given is cell-based. How it is done:
as §1

In assay [2] the test system is spontaneously hypertensive rats (SHR). Nature of the assay: antihypertensive activity in spontaneously hypertensive rats, systolic blood pressure. The class given is in vivo, rat. To be noted: 50 mg/kg per os. The procedure: Antihypertensive activity is determined in spontaneously hypertensive rats (SHR) of the Okomoto-Aoki strain. Systolic blood pressure of the SHR is measured from the caudal artery by means of an indirect method utilizing a photocell transducer/tail cuff occluder system. Time response relationships are determined for each compound following an oral dose of 50 mg/kg. Data are expressed as mm of Hg decrease from control values. Statistical significance is determined using a 2 tailed "t" test comparing drug treatment response values to those obtained from concurrent vehicle treated animals.

For assay [3], the system named is α-adrenergic receptor. Briefly: α-adrenergic receptor blocking activity in vivo, anesthetized dog, phenylephrine agonist. To be noted: iv. How it is done:
(§2) α-Adrenergic receptor blocking activity is determined in vivo by performing cumulative dose-response experiments in the anesthetized dog using phenylephrine as the agonist. The increase in diastolic blood pressure produced by phenylephrine is determined in the absence and again in the presence of logarithmically increasing doses of the test compound. Relative antagonistic potency is expressed as DR10. DR10 is defined as the negative logarithm of the dose of the antagonist which increased by 10 times the dose of agonist necessary to produce 50% of the maximal attainable response.

Assay [4] concerns β-adrenergic receptor (β2). Briefly: β-adrenergic receptor blocking activity in vivo, isoproterenol agonist, decrease in diastolic blood pressure (β2). To be noted: anesthetized dog, iv. The procedure: as §2, with “response. […] Two responses, increase in cardiac rate (β1) and decrease in diastolic blood pressure (β2) are measured.” for “response.”
In assay [5] the test system is β-adrenergic receptor (β1). Briefly: β-adrenergic receptor blocking activity in vivo, isoproterenol agonist, increase in cardiac rate (β1). To be noted: anesthetized dog, iv. The procedure: as §2, with “response. […] Two responses, increase in cardiac rate (β1) and decrease in diastolic blood pressure (β2) are measured.” for “response.”

Data on 16 compounds can be found in patent US4255575A, “2-Hydroxy-5-(1-hydroxy-2-piperazinylethyl)-benzoic acid derivatives” (priority 1979, dated 1981).

T1 sequence (H0W3H1 1-470): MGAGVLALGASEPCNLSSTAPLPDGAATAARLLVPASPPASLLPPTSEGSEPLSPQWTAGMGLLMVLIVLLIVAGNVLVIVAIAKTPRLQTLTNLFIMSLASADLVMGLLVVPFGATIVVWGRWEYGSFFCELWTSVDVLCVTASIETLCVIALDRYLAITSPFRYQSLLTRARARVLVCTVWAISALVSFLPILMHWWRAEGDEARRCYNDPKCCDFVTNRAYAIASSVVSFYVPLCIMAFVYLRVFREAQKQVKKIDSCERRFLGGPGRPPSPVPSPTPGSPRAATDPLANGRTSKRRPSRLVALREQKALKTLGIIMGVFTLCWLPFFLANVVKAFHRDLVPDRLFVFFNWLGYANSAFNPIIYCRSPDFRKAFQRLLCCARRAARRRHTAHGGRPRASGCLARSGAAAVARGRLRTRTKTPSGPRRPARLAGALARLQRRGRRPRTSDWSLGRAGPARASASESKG

With `COC(=O)c1cc(C(O)CN2CCN(c3ccccc3C)CC2)ccc1O.Cl` (stereo not drawn) [Compound 1, methyl 2-hydroxy-5-[1-hydroxy-2-[4-(2-methylphenyl)-1-piperazinyl]ethyl]benzoate hydrochloride], the “pA2 BaCl2” value in the assay with guinea pig ileum was determined as 6.06. For the same compound, the Kb at β-adrenergic receptor was 162 nM. Moreover, the “pA2 α” value in the assay on α-adrenergic receptor [1] worked out at 7.45.
Take `Cc1ccccc1N1CCN(CC(O)c2ccc(O)c(C(N)=O)c2)CC1.Cl` (stereo not drawn) [Compound 2, 2-hydroxy-5-[1-hydroxy-2-[4-(2-methylphenyl)-1-piperazinyl]ethyl]benzamide monohydrochloride]: in assay [2], the “Fall in Blood Pressure After: 1 hour” value came to 48 mm Hg and the “Fall in Blood Pressure After: 4 hours” value worked out at 37 mm Hg. The “DR10 (α)” value in the assay on α-adrenergic receptor [3] was 1.09 mg/kg iv. Besides, the “DR10 (β2), decrease in diastolic blood pressure” value in assay [4] is > 10 mg/kg iv. In addition, the “DR10 (β1), increase in cardiac rate” value in assay [5] worked out at 15.3 mg/kg iv. Besides, the “pA2 BaCl2” value in the assay on guinea pig ileum was found to be 5.73. Besides, on β-adrenergic receptor, the Kb was 200 nM. For the same compound, in the assay with α-adrenergic receptor [1], the “pA2 α” value came out at 7.57.
Take `Cl.NC(=O)c1cc(C(O)CN2CCN(c3cccc(C(F)(F)F)c3)CC2)ccc1O` (stereo not drawn) [Compound 3, 2-hydroxy-5-[1-hydroxy-2-[4-[3-(trifluoromethyl)phenyl]-1-piperazinyl]ethyl]benzamide monohydrochloride]: in the assay on guinea pig ileum, the “pA2 BaCl2” value is listed as 5.74. For the same compound, the Kb at β-adrenergic receptor was 126 nM. Also, the “pA2 α” value in the assay with α-adrenergic receptor [1] was 6.33.
The like results for `COc1ccc(N2CCN(CC(O)c3ccc(O)c(C(N)=O)c3)CC2)cc1.Cl.Cl` (stereo not drawn) [Compound 4, 2-hydroxy-5-[1-hydroxy-2-[4-(4-methoxyphenyl)-1-piperazinyl]ethyl]benzamide dihydrochloride] were, in that order, < 4.28, 1450 nM and 6.13.
On to `Cl.NC(=O)c1cc(C(O)CN2CCN(c3ccc(Cl)cc3)CC2)ccc1O.O` (stereo not drawn) [Compound 5, 5-[2-[4-(4-chlorophenyl)-1-piperazinyl]-1-hydroxyethyl]-2-hydroxybenzamide monohydrochloride, monohydrate], for which, in assay [2], the “Fall in Blood Pressure After: 1 hour” value came to 49 mm Hg and the “Fall in Blood Pressure After: 4 hours” value worked out at 56 mm Hg. Besides, in the assay with guinea pig ileum, the “pA2 BaCl2” value is on record as 4.58. In addition, at β-adrenergic receptor, the Kb is 676 nM. For the same compound, the “pA2 α” value in the assay with α-adrenergic receptor [1] stood at 6.87.
`Cl.NC(=O)c1cc(C(O)CN2CCN(c3ccccc3)CC2)ccc1O.O` (stereo not drawn) [Compound 6, 2-hydroxy-5-[1-hydroxy-2-(4-phenyl-1-piperazinyl)ethyl]benzamide monohydrochloride hydrate]: the “pA2 BaCl2” value in the assay on guinea pig ileum was 4.19. Besides, at β-adrenergic receptor, the “pA2 β” value is given as “stimulant”. Further, the “pA2 α” value in the assay with α-adrenergic receptor [1] is on record as 7.04.
For `COc1ccccc1N1CCN(CC(O)c2ccc(O)c(C(N)=O)c2)CC1.Cl` (stereo not drawn) [Compound 7, 2-hydroxy-5-[1-hydroxy-2-[4-(2-methoxyphenyl)-1-piperazinyl]ethyl]benzamide monohydrochloride], in assay [2], the “Fall in Blood Pressure After: 1 hour” value stood at 45 mm Hg and the “Fall in Blood Pressure After: 4 hours” value came out at 35 mm Hg. Moreover, the “pA2 BaCl2” value with guinea pig ileum worked out at 4.87. In addition, on β-adrenergic receptor, the Kb was 363 nM. The “pA2 α” value in the assay with α-adrenergic receptor [1] worked out at 7.42.
Take `Cl.NC(=O)c1cc(C(O)CN2CCN(c3ccccn3)CC2)ccc1O.O` (stereo not drawn) [Compound 8, 2-hydroxy-5-[1-hydroxy-2-[4-(2-pyridinyl)-1-piperazinyl]ethyl]benzamide monohydrochloride hydrate]: the “pA2 BaCl2” value with guinea pig ileum turned out to be 3.90. At β-adrenergic receptor, the Kb is 4270 nM. In addition, the “pA2 α” value in the assay with α-adrenergic receptor [1] was determined as 6.08.
Regarding `CNC(=O)c1cc(C(O)CN2CCN(c3ccc(OC)cc3)CC2)ccc1O.Cl.O` (stereo not drawn) [Compound 9, 2-hydroxy-5-[1-hydroxy-2-[4-(4-methoxyphenyl)-1-piperazinyl]ethyl]-N-methylbenzamide monohydrochloride hydrate], the “pA2 BaCl2” value in the assay with guinea pig ileum is listed as 4.82. Also, the Kb on β-adrenergic receptor was 6760 nM. The “pA2 α” value with α-adrenergic receptor [1] is 5.47.
As to `CNC(=O)c1cc(C(O)CN2CCN(c3ccccc3OC)CC2)ccc1O.Cl.O` (stereo not drawn) [Compound 10, 2-hydroxy-5-[1-hydroxy-2-[4-(2-methoxyphenyl)-1-piperazinyl]ethyl]-N-methylbenzamide monohydrochloride monohydrate], in assay [2], the “Fall in Blood Pressure After: 1 hour” value worked out at 44 mm Hg and the “Fall in Blood Pressure After: 4 hours” value was found to be 52 mm Hg. For the same compound, the “pA2 BaCl2” value with guinea pig ileum turned out to be 5.02. Besides, the “pA2 β” value at β-adrenergic receptor is listed as “stimulant”. In addition, in the assay on α-adrenergic receptor [1], the “pA2 α” value was 7.95.
Consider `Cc1ccccc1N1CCN(CC(O)c2ccc(O)c(C(=O)NCC(C)(C)C)c2)CC1.Cl` (stereo not drawn) [Compound 11, N-(2,2-dimethylpropyl)-2-hydroxy-5-[1-hydroxy-2-[4-(2-methylphenyl)-1-piperazinyl]ethyl]benzamide monohydrochloride], for which, in assay [2], the “Fall in Blood Pressure After: 1 hour” value is 41 mm Hg and the “Fall in Blood Pressure After: 4 hours” value was 32 mm Hg. For the same compound, in the assay with guinea pig ileum, the “pA2 BaCl2” value came to 6.65. For the same compound, at β-adrenergic receptor, the Kb is 468 nM. Besides, the “pA2 α” value with α-adrenergic receptor [1] came to 7.21.
With `COc1ccc(C(O)CN2CCN(c3ccccc3)CC2)cc1C(N)=O.Cl` (stereo not drawn) [Compound 12, 5-[1-hydroxy-2-(4-phenyl-1-piperazinyl)ethyl]-2-methoxybenzamide monohydrochloride], in assay [2], the “Fall in Blood Pressure After: 1 hour” value was determined as 33 mm Hg and the “Fall in Blood Pressure After: 4 hours” value was 25 mm Hg. Further, in the assay on guinea pig ileum, the “pA2 BaCl2” value is 4.19. Besides, at β-adrenergic receptor, the Kb is > 10000 nM. In addition, the “pA2 α” value in the assay with α-adrenergic receptor [1] came out at 6.54.
On to `CCOc1ccc(C(O)CN2CCN(c3ccccc3)CC2)cc1C(N)=O.Cl` (stereo not drawn) [Compound 13, 2-ethoxy-5-[1-hydroxy-2-(4-phenyl-1-piperazinyl)ethyl]benzamide monohydrochloride], for which the “pA2 BaCl2” value with guinea pig ileum turned out to be 4.67. At β-adrenergic receptor, the Kb was 5370 nM. In addition, in the assay with α-adrenergic receptor [1], the “pA2 α” value is recorded as 6.27.
With `Cc1ccccc1N1CCN(CC(O)c2ccc(O)c(-c3nnn[nH]3)c2)CC1.Cl.O` (stereo not drawn) [Compound 14, α-(4-Hydroxy-3-1H-tetrazol-5-ylphenyl)-4-(2-methylphenyl)-1-piperazineethanol Monohydrochloride Monohydrate], in assay [2], the “Fall in Blood Pressure After: 1 hour” value is 48 mm Hg. The “pA2 BaCl2” value in the assay on guinea pig ileum is on record as < 4. Moreover, on β-adrenergic receptor, the Kb was 724 nM. For the same compound, in the assay on α-adrenergic receptor [1], the “pA2 α” value came out at 7.56.
For the compound `CC(CCc1ccccc1)NC(C)C(O)c1ccc(O)cc1` (stereo not drawn) [nylidrine, reference compound], the “pA2 β” value at β-adrenergic receptor is on record as “stimulant”.
As for `Cc1ccc(N(CC2=NCCN2)c2cccc(O)c2)cc1` [phentolamine, reference compound], the “DR10 (α)” value with α-adrenergic receptor [3] is reported as 2.65 mg/kg iv.
